In ChEMBL document CHEMBL6092202, “4-Anilinoquinazoline Derivatives as the First Potent NOD1-RIPK2 Signaling Pathway Inhibitors at the Nanomolar Range” (J Med Chem, 2024):
pIC50: −log10 of the molar value. Values after ≈ are worked out from the molar mass of the structure shown. Active and inactive are the calls of the source. The rule behind the calls is not given here.

Tests used:
[1] = target: T1, Nucleotide-binding oligomerization domain-containing protein 1 (Homo sapiens, UniProt Q9Y239); assay: (§1) Inhibition of human NOD1 expressed in HEK-Blue hNOD1 cells coexpressing NF-kappaB-inducible SEAP reporter gene assessed as inhibition of NF-kappaB transcriptional activity by measuring decrease in SEAP activity preincubated for 30 mins followed by C12-iE-DAP addition and measured after 18 hrs by absorbance based spectrophotometric analysis; assay type: cell-based
T1 sequence (Q9Y239 whole entry): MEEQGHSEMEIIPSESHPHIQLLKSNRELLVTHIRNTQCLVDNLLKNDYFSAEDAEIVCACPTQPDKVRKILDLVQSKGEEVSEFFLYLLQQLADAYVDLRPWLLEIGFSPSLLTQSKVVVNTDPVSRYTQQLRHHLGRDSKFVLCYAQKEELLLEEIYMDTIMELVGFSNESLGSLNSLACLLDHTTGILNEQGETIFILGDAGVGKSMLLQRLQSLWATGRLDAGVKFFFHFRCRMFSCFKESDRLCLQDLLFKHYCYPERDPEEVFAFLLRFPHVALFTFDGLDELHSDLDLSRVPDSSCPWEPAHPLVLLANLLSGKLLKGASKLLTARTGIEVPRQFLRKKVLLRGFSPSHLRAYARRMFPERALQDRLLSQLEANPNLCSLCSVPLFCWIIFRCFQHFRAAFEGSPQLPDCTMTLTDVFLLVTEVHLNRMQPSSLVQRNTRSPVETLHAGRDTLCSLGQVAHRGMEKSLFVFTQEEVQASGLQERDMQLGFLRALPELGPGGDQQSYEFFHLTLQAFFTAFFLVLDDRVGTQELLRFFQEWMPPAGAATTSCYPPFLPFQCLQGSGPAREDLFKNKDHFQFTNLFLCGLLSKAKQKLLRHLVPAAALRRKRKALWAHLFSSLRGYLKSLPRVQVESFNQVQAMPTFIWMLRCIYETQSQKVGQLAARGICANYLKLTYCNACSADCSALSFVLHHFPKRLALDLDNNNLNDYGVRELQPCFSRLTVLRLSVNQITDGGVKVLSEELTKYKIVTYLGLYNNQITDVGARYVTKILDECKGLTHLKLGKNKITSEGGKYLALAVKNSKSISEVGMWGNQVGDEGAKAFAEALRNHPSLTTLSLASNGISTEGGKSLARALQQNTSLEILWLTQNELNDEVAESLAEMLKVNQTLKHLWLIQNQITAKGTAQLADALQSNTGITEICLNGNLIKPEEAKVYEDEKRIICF

[2] = target: Nucleotide-binding oligomerization domain-containing protein 2 (Homo sapiens, UniProt Q9HC29); assay: as §1, with “NOD2” for “NOD1”, “hNOD2” for “hNOD1”; assay type: cell-based
[3] = target: Receptor-interacting serine/threonine-protein kinase 2 (Homo sapiens, UniProt O43353); assay: Inhibition of human recombinant RIPK2 (1 to 317 residues) expressed in Sf21 insect cells using MBP as substrate preincubated for 10 mins followed by substrate addition and measured after 1 hr by ADP-Glo luminescence assay
[4] = Lipophilicity, logD of compound at pH 7.4; assay type: physicochemical; settings: buffer
[5] = Stability in plasma (unknown origin) assessed as half life; assay type: ADME, cell-free
[6] = Inhibition of recombinant VEGFR (unknown origin) using PGT as substrate preincubated for 10 mins followed by substrate addition and measured after 1 hr by ADP-Glo luminescence assay; design: species or system Homo sapiens
[7] = Cytotoxicity against HEK-Blue hNOD1 cells assessed as reduction in cell viability at 1 uM measured after 72 hrs by celltiter 96 aqueous one solution cell proliferation assay; assay type: toxicity, cell-based; settings: human, hek-blue hnod1, 72 h
[8] = Cytotoxicity against human THP1-Blue NF-kappaB cells assessed as reduction in cell viability at 1 uM measured after 72 hrs by celltiter 96 aqueous one solution cell proliferation assay; assay type: toxicity, cell-based
[9] = Solubility of the compound in PBS buffer at pH 7.4; assay type: physicochemical
[10] = Metabolic stability in liver microsomes (unknown origin) assessed as half life; assay type: ADME, Microsome
[11] = Metabolic stability in liver microsomes (unknown origin) assessed as intrinsic clearance; assay type: ADME, Microsome; settings: read-out: CLH
[12] = target: Epidermal growth factor receptor (Homo sapiens, UniProt P00533); assay: Inhibition of recombinant EGFR (unknown origin) using PGT as substrate preincubated for 10 mins followed by substrate addition and measured after 1 hr in presence of ATP by ADP-Glo luminescence assay
[13] = system: Huh-7; assay: Cytotoxicity against human Huh-7 cells assessed as reduction in cell viability at 1 uM measured after 72 hrs by celltiter 96 aqueous one solution cell proliferation assay; assay type: toxicity, cell-based; settings: huh-7, 72 h
[14] = system: HEK-Blue hNOD1; assay: Anti-inflammatory activity in HEK-Blue hNOD1 cells assessed as reduction in C12-iE-DAP stimulated IL-8 secretion at 0.01 to 1 uM preincubated for 1 hr followed by C12-iE-DAP addition and measured after 22 hrs by fluorescence based analysis; assay type: functional, cell-based; settings: Homo sapiens, dose 0.01-1 µM, time 23.0 hrs

Epidermal growth factor receptor, sequence (P00533 whole entry): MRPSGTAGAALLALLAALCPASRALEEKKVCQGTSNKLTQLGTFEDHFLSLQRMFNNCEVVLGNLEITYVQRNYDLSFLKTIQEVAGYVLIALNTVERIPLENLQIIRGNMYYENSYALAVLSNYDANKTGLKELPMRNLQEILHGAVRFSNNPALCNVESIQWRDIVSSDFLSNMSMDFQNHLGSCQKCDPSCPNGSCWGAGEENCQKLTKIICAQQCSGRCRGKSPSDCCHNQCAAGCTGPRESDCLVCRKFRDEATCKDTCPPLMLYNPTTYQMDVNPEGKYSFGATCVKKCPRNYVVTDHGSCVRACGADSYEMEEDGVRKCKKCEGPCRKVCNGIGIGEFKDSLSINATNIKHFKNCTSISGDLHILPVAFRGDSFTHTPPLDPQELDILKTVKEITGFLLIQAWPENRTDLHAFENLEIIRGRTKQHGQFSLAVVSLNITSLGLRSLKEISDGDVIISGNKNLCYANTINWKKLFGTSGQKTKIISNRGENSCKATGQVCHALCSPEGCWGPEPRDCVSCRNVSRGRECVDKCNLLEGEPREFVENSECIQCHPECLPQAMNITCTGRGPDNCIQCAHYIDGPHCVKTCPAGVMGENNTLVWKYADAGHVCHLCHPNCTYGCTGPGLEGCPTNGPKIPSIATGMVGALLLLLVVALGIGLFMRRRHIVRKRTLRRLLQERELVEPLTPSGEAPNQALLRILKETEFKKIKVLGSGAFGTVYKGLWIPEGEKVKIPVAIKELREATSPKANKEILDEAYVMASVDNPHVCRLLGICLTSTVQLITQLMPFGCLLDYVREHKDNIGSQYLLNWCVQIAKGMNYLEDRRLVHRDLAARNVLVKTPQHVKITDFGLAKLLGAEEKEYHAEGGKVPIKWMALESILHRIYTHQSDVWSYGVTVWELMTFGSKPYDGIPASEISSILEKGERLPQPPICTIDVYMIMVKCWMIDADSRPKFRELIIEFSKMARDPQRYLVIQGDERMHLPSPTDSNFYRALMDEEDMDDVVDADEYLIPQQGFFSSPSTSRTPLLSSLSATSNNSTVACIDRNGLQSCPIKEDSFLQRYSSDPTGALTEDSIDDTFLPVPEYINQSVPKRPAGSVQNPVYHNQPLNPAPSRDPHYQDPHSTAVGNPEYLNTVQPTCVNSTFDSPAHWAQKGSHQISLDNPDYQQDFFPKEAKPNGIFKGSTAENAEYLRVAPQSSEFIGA
Nucleotide-binding oligomerization domain-containing protein 2, sequence (Q9HC29 whole entry, the tested form may be a part): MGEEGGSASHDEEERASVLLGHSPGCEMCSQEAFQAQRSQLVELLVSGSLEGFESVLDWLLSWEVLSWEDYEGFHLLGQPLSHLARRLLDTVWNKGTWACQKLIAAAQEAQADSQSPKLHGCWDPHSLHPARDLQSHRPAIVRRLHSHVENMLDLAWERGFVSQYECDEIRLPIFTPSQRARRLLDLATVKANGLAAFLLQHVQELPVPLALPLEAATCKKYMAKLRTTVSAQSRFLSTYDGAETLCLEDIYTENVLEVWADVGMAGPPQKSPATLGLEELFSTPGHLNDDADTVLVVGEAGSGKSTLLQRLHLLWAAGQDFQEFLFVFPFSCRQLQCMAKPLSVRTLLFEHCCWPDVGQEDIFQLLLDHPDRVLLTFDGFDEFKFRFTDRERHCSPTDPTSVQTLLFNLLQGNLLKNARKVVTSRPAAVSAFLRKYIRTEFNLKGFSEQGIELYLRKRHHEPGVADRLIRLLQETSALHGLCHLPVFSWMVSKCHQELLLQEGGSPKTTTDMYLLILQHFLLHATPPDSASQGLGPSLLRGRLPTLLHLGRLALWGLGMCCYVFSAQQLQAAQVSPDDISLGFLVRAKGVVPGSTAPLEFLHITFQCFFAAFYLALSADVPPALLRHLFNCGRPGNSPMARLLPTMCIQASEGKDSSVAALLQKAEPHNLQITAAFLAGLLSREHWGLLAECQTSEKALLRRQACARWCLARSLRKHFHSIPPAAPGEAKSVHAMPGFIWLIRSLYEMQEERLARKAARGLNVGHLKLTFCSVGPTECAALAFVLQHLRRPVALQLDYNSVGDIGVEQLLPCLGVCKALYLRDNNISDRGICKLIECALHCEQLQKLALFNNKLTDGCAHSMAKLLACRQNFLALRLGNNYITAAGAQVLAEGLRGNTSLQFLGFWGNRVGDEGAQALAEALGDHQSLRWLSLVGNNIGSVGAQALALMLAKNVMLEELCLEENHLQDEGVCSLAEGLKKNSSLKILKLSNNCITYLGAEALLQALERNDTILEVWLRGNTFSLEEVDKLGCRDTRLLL
Receptor-interacting serine/threonine-protein kinase 2, sequence (O43353 whole entry, the tested form may be a part): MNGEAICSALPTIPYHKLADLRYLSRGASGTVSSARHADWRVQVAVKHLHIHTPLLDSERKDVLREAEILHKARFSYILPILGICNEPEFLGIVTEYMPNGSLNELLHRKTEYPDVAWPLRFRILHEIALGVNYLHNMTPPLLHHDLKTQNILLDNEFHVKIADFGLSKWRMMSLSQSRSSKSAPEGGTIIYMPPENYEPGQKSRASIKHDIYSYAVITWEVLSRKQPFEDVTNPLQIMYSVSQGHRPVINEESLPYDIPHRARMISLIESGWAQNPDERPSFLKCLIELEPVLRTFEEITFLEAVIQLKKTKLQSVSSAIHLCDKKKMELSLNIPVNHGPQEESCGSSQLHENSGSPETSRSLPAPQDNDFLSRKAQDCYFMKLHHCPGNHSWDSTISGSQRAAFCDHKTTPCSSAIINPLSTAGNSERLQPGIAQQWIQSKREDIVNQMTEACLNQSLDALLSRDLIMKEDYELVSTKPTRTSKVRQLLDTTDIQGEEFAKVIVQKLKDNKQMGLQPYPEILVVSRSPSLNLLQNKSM

SMILES | pIC50 [1] | pIC50 [2] | other results
COc1cc2ncnc(Nc3ccc(Cl)cc3)c2cc1OC | 6.55 | < 5.00 | –
COc1cc2ncnc(Nc3cccc(N)c3)c2cc1OC | < 5.00 | < 5.00 | –
CCCS(=O)(=O)Nc1cc(-c2cc(-c3ccc(N4CCNCC4)cc3)cnc2N)cc(F)c1OC | – | 6.66 | pIC50 [3]: 8.71
COc1cc2ncnc(Nc3cc(N)ccn3)c2cc1OC | – | < 5.00 | –
COc1cc2ncnc(Nc3cccc(O)c3)c2cc1OC | 6.80 | < 5.00 | –
COc1cc2ncnc(Nc3n[nH]c(C)c3C)c2cc1OC | < 5.00 | < 5.00 | –
COc1cc2ncnc(Nc3ccccc3)c2cc1OC | < 5.00 | < 5.00 | –
Cc1ccc(S(=O)(=O)n2c(N)nc3ccccc32)cc1 | – | < 5.00 | Activity [14]: inactive; pIC50 [3]: < 6.00
COc1cc2ncnc(-n3nc(N)c4cc(F)ccc43)c2cc1OC | – | < 5.00 | –
COc1cc2ncnc(Nc3ccncc3)c2cc1OC | – | < 5.00 | –
COc1cc2ncnc(Nc3n[nH]c4ccc(F)cc34)c2cc1OC | – | < 5.00 | –
COc1cc2ncnc(Nc3ccc(F)c(O)c3)c2cc1OC | – | < 5.00 | pIC50 [6]: 8.52; Activity [7]: Non-toxic; Activity [8]: Non-toxic; pIC50 [12]: 8.59; Activity [13]: Non-toxic
COc1cc2ncnc(Nc3ccc4scnc4c3)c2cc1OC.Cl | – | < 5.00 | Activity [7]: Non-toxic; Activity [8]: Non-toxic; pIC50 [12]: 7.44; Activity [13]: Non-toxic
COc1cc2ncnc(Nc3ccc(Br)c(O)c3)c2cc1OC | – | < 5.00 | –

Further lines, with some results ahead:

pIC50 [1] | pIC50 [2] | SMILES | other results
< 5.00 | < 5.00 | COc1cc2ncnc(Nc3cc(O)c(Cl)cc3Cl)c2cc1OC | –
– | < 5.00 | CCN(CC)CCOc1cc2c(Nc3cc(OC)c(Cl)cc3Cl)ncnc2cc1OC | –
6.16 | < 5.00 | COc1ccc(Cl)c(Nc2ncnc3cc(OC)c(OC)cc23)c1 | –
6.26 | < 5.00 | COc1cc2ncnc(Nc3ccc(Br)cc3F)c2cc1OC | –
– | < 5.00 | COc1cc(Nc2ncnc3c(OC)c(OC)c(OC)cc23)c(Cl)cc1Cl | –
– | < 5.00 | COc1cc(Nc2ncnc3cc(OC)c(OC)cc23)c(F)cc1Br | –
7.38 | < 5.00 | CCN(CC)CCOc1cc2ncnc(Nc3cc(OC)c(Cl)cc3Cl)c2cc1OC | logD [4]: 0.88; half-life [5]: > 6 h; pIC50 [6]: < 6.00; Activity [7]: Non-toxic; Activity [8]: Non-toxic; solubility [9]: 31 µM (≈ 14.4 µg/mL); half-life [10]: > 0.667 h; microsomal CLint [11]: 29 µL/min/mg; pIC50 [12]: < 6.00; Activity [13]: Non-toxic
< 5.00 | < 5.00 | COc1cc2ncnc(Nc3cccc(Cl)c3)c2cc1OC | –
– | < 5.00 | COc1cc2ncnc(Nc3cc(Br)ccc3Br)c2cc1OC | –
6.22 | 5.97 | COc1cc2ncnc(Nc3ccc(F)c(Cl)c3)c2cc1OCCCN1CCOCC1 [GEFITINIB] | Activity [7]: Non-toxic; Activity [8]: Non-toxic; Activity [13]: Non-toxic
– | < 5.00 | COCCOc1cc2ncnc(Nc3cc(OC)c(Cl)cc3Cl)c2cc1OCCOC | –
7.48 | < 5.00 | COc1cc2ncnc(Nc3ccc(Cl)c(O)c3)c2cc1OC.Cl | pIC50 [6]: 8.86; Activity [7]: Non-toxic; Activity [8]: Non-toxic; pIC50 [12]: 9.08; Activity [13]: Non-toxic
– | < 5.00 | COc1cc(Nc2ncnc3cc(OC)c(OC)cc23)ccc1Cl | –
– | < 5.00 | CCN(CC)CCOc1ccc2c(Nc3cc(OC)c(Cl)cc3Cl)ncnc2c1 | –
– | < 5.00 | COc1cc2ncnc(Nc3ccc(Cl)c(N)c3)c2cc1OC | Activity [7]: Non-toxic; Activity [8]: Non-toxic; pIC50 [12]: 9.34; Activity [13]: Non-toxic
5.87 | < 5.00 | COc1cc2ncnc(Nc3ccc(F)c(Cl)c3)c2cc1OC | –
< 5.00 | < 5.00 | COc1cc2ncnc(Nc3ccc(Cl)cc3Cl)c2cc1OC | –
– | < 5.00 | COc1cc2ncnc(Nc3ccc(Cl)c(Cl)c3)c2cc1OC | –
– | < 5.00 | COc1cc(Nc2ncnc3cc(OC)c(OC)cc23)c(Cl)cc1Cl | Activity [7]: Non-toxic; Activity [8]: Non-toxic; pIC50 [12]: 7.21; Activity [13]: Non-toxic
– | < 5.00 | COc1cc2ncnc(Nc3ccccc3Cl)c2cc1OC | –
